≈ marks a conversion by molar mass, not a printed value. Read-outs that look alike come from different tables or passages of the source.
System: Mycobacterium tuberculosis H37Rv
Test: Resazurin Microplate Assay (REMA), anti-tubercular activity, susceptible strain
Format: cell-based
Settings: 192 h
[1] = H37Rv strain, 8 days incubation at 37° C, Middlebrook 7H9 broth, read-out: MIC Susceptible (H37Rv)

Row | SMILES | MIC (read-out: MIC Susceptible (H37Rv), H37Rv strain, 8 days incubation at 37° C, Middlebrook 7H9 broth) [µg/mL] | MIC [1] [µg/mL]
1 | CCOC(=O)c1cc(C(=O)c2ccc(F)cc2)n2ccc(N)cc12 [Compound 3a, Ethyl 7-amino-3-(4-fluorobenzoyl)indolizine-1-carboxylate] | ~16 (≈ 49 µM) | 
2 | CCOC(=O)c1cc(C(=O)c2ccccc2[N+](=O)[O-])n2ccc(N)cc12 [Compound 3b, Ethyl 7-amino-3-(2-nitrobenzoyl)indolizine-1-carboxylate] |  | ~8 (≈ 22.6 µM)
3 | CCOC(=O)c1cc(C(=O)c2ccc(Br)cc2)n2ccc(N)cc12 [Compound 3e, Ethyl 7-amino-3-(4-bromobenzoyl)indolizine-1-carboxylate] |  | ~32 (≈ 82.6 µM)

— patent publication US11976066B1 (priority 2023, dated 2024)
